Reference: patent US20040091479A1, “T-cell epitope of the papillomavirus l1 and e7 protein and use thereof in diagnostics and therapy” (priority 2000, published 2004)

Key:
[1] = tested on: LKK cells; assay: 51Cr release: lysing HPV18 peptide-loaded LKK cells (example 17); assay type: cell-based, murine
Experimental: In analogy with example 4, RMA or LKK cells were radioactively labeled with ^51Cr and incubated with the peptides (Q43 and Q44 in the upper part of FIG. 16 and Q49 in the lower part of FIG. 16) which are plotted on the X axis. Cells without peptide served as negative controls. T cells which had previously been stimulated with the peptide pool were then added.
The lysis of the RMA cells or LKK cells by the T cells was measured by the release of the ^51Cr and calculated as described in example 4.

[2] = tested on: autologous peptide-loaded BLCL; assay: Cytotoxicity test (chromium release assay) of HPV18 E786-94-specific T cells; assay type: cell-based, human; settings: effector to target ratio of 30:1, FIG. 17 bottom
Experimental: The predicted peptides were synthesized using standard methods (F moc method). […] For this, 1×10^5 PBMC derived from healthy, HLA-A2-positive donors were sown, in 100 μl of medium (RPMI 1640, 10% heat-inactivated AB plasma), in each well of a 96-well plate. 20 μg of peptide/ml were added to the culture medium. The cells were incubated at 37° C. and restimulated once per week with irradiated peptide-loaded autologous PBMC. The stimulator PBMC were incubated for 4 hours in medium containing 20 μg of peptide/ml. After the irradiation, they were diluted down to 1×10^4/100 μl with medium and added to the peptide-stimulated PBMC. For this, half the medium was aspirated from each well and 100 μl of the stimulator PBMC suspension were added. 10 U of IL-2/ml and 10 U of IL-7/ml were added from the 3rd stimulation onwards. From the 5th stimulation onwards, restimulation was carried out in the same manner using peptide-loaded autologous B lymphoblast cell lines (BLCL).
The cytotoxicity of HPV18 E786-94-specific T cells was determined in a chromium release assay. Autologous BLCL were used as the target cells. In each case, 5×10^5 cells were taken up in 100 μl of medium (RPMI 1640, 10% FCS) and treated with 20 μl of ^51chromium (NEN). For loading the BLCL with peptide, 50 μg of the corresponding peptide were added/ml. After that, the cells were incubated at room temperature for 2 hours while being carefully resuspended every 20-30 min. The cells were then washed 3 times with 5 ml of medium. For the sedimenting, the cells were in each case centrifuged at 1500 rpm for 5 min and then carefully resuspended. […]
The assay samples were incubated for 4 hours at 37° C., 98% atmospheric humidity and 5% CO2. […] On the following day, 150 μl of Microscint 40 scintillation fluid (Canberra-Packard, Deieich) were added and the numbers of distintegrations per minute in the individual assay samples were measured in the scintillation counter (Topcount, Canberra-Packard, Dreieich).
The specific lysis was calculated using the following formula: […]

[3] = tested on: human T cells; assay: Summary of examples 3 to 18: epitopes recognized by human T cells; assay type: cell-based; settings: Table 4, HPV18 peptides, species human
[4] = tested on: CVLP-stimulated CD4-positive T cells; assay: Restimulating HPV18 CVLP-stimulated T cells with BLCL presenting pools or Q30 (example 15); assay type: cell-based, human
Experimental: (§1) In analogy with example 6, human T cells derived from a non-HLA-typed blood donor were stimulated, at 37° C., with HPV18L1ΔCDIE71-53DI CVLPs and HPV18L1ΔCDIE71-60DI CVLPs and harvested.
The T cells were then restimulated, at 37° C. and in 100 μl of medium, with the peptide pools from example 6 and 10^5 antigen-presenting cells (donor-identical BLCL) in the presence of 10 IU of IL2/ml. Use was made, in this connection, of quantities of the peptide pools which were such that 1 μg/ml was added in the case of each individual peptide. Cells which were only incubated with buffer served as the negative control while cells which were incubated with the HPV18 L1 or E7 peptide pool served as positive controls (upper part of FIG. 14). In the case of the lower part of FIG. 14, the T cells were restimulated, at 37° C. and in 100 μl of medium, with peptide pools F and 4 and with 1 μg of peptide Q30/ml and 10^5 antigen-presenting cells (donor-identical BLCL) in the presence of 10 IU of IL2/ml.
(§2) 1 μl of monensin was added after an hour. The cells were then incubated at 37° C. for a further 5 hours. After that, the cells were fixed and permeabilized and stained with α-human CDB/APC, with α-human CD4/PerCP and with α-human IFNγ/FITC. The labeling of the cells was examined in a FACScan Calibur and the results of the measurements were analyzed using Cellquest software.

[5] = tested on: CVLP-stimulated CD4-positive T cells; assay: Restimulating HPV18 CVLP-stimulated T cells with BLCL presenting HPV18 peptide pools (example 12); assay type: cell-based, human; settings: peptide common to two reactive HPV18 pools; CD4/IFNγ
Experimental: as §1
The T cells were then restimulated, at 37° C. and in 100 μl of medium, with the HPV18 peptide pools from example 6 and 10^5 antigen-presenting cells (donor-identical BLCL) in the presence of 10 IU of IL2/ml. Use was made, in this connection, of quantities of the peptide pools which were such that 1 μg/ml was added in the case of each individual peptide. Cells which were only incubated with buffer served as the negative control while cells which were incubated with HPV18 L1 peptide pool served as the positive control.
as §2, with “CD8/APC,” for “CDB/APC,”

[6] = tested on: CVLP-stimulated human CD4-positive T cells; assay: Restimulating HPV18 CVLP-stimulated T cells with BLCL presenting HPV18 peptide pools (example 6); assay type: cell-based; settings: peptide common to two reactive HPV18 pools; CD4/IFNγ
Experimental: Human T cells (4×10^5) from a non-HLA-typed blood donor were stimulated for 1 week with HPV18 L1ΔCDIE71-53DI CVLPs and HPV18 L1ΔACDIE71-60DI CVLPS, 800 U of human GM-CSF/ml and 500 U of human IL4/ml and also, for a further 5 weeks, with HPV18 L1ΔCDIE71-53DI CVLPs and HPV18 L1ΔCDIE71-6ODI CVLPs at 37° C., with the weekly addition of 1 μg of the CVLPs mixLure (ratio of the two constructs 1:1)/ml and 10^5 antigen-presenting cells (irradiated PMBC), and harvested.
The 20 mer peptides Q1 to 52 were assembled into peptide pools A to H and 1 to 7, respectively, in accordance with the matrix
The T cells were then restimulated, at 37° C. and in 100 μl of medium, with the peptide pools and 10^5 antigen-presenting cells (donor-identical BLCL) in the presence of 10 IU of IL2/ml. The quantities of the peptide pools which were used in this connection were such that. 1 μg/ml was added in the case of each individual peptide.
Cells which were only incubated with buffer served as the negative control while cells incubated with the HPV18 L1 peptide pool and the HPV18 E7 peptide pool, respectively, served as positive controls.
as §2, with “CD8/APC,” for “CDB/APC,”, “analyzed” for “examined”

[7] = tested on: HPV18 CVLP-stimulated human T cells; assay: Restimulating HPV18 CVLP-stimulated T cells with BLCL presenting Q38, Q39, Q46 or Q47 (example 13); assay type: cell-based
Experimental: In analogy with example 6, human T cells (4×10^5) derived from a non-HLA-typed blood donor were stimulated with HPV18L1ΔCDIE71-53DI CVLPs and HPV18L1ΔCDIE71-60DI CVLPs and harvested.
The T cells were then restimulated, at 37° C. and in 100 μl of medium, with in each case 1 μg of peptide Q38, Q39, Q46 or Q47/ml and 10^5 antigen-presenting cells (donor-identical BLCL) in the presence of 10 IU of IL2/ml. Cells which were only incubated with buffer served as the negative control while cells which were incubated with the HPV18 L1 peptide pool or the E7 peptide pool served as positive controls.
as §2, with “CD8/APC,” for “CDB/APC,”

[8] = tested on: T cell line generated with HeLa CD80/HLA-A2 transfectants (H7.1-A2); assay: IFN-γ ELISpot of H7.1-A2-specific T cell line against peptide-loaded autologous PBMC; assay type: cell-based, human; settings: H7.1-A2-induced T cell line, FIG. 17 top
[9] = tested on: CVLP-stimulated CD8-positive T cells; assay: Restimulating HPV16 CVLP-stimulated T cells with P33-presenting BLCL (example 11); assay type: cell-based, human
Experimental: In analogy with example 6, human T cells derived from a non-HLA-typed blood donor were stimulated with HPV16L1ΔC*E71-55 CVLPs and harvested.
The T cells were then restimulated, at 37° C. and in 100 μl of medium, with 1 μg of peptide P33/ml and 10^5 antigen-presenting cells (donor-identical BLCL) in the presence of 10 IU of IL2/ml. Cells which were only incubated with buffer served as the negative control while cells which were incubated with HPV16 L1 peptide pool served as the positive control.
as §2, with “CD8/APC,” for “CDB/APC,”

[10] = tested on: P33-loaded RMA cells; assay: 51Cr release: lysing P33-loaded RMA cells; assay type: cell-based, C57BL/6 mouse
Experimental: RMA cells were incubated at 37° C. for one hour with ^51Cr, washed three times with medium and divided into 2 aliquots. 10 μg of the P33 peptide/ml were added to one aliquot of the cells while the other aliquot served as the negative control in the absence of the peptide. In each case 2000 of the cells (=target cells) were then added to 40.000 T cells (=effector cells) in a total volume of 150 μl. The T cells had previously been stimulated for 5 weeks with a mixture composed of 43 peptides (peptides 1-43, in each case 1 μg/ml).
Assay mixtures for spontaneous and maximal lysis of the cells were set up in parallel. Target cells which were incubated with culture medium were used for the spontaneous lysis. For the maximal lysis, target cells were lysed by adding 0.5% Triton X100.
The assay mixtures were incubated at 37° C. for 5 h. 50 μl volumes of the supernatants from the assay mixtures were added to Luma plates and dried overnight at room temperature. On the following morning, the quantity of radioactive ^51Cr (counts) was determined using a Canberra-Packerd B Plate Counter and related to the maximally lysed cells in the Triton assay mixture. The % specific lysis was then determined using the formula:
x=100·(counts−spontaneous counts)/(maximal counts−spontaneous counts).

PQRHTMLCMCCKCEARIKLV [Q49, HPV18 E7 56-75]
T cell epitope assignment ([1]; conclusion from FIG. 16 lower part): H2k-restricted cytotoxic T cell epitope | specific lysis of target cells (51Cr release) ([1]; peptide-loaded LKK cells, effector:target 20, FIG. 16 lower part): able to efficiently lyse

HPV16 E628-36: control peptide in the chromium release assay (TTIHDIILE; UniProt P03126 28-36, looked up, fragment)
specific lysis [2]: No specific lysis

NNGVCWHNQLFVTVVDTTRS [Q30, HPV18 L1 320-339]
Epitope type [3]: TH1 | T cell epitope assignment (TH1) ([4]; peptide common to pools F and 4): contains a TH1 epitope | proportion of reactive CD4-positive and IFNγ-positive T cells, confirmation experiment ([4]; pools F or 4 or 1 μg Q30/ml compared with each other, FIG. 14): comparable

VDLLCHEQLSDSEEENDEID [Q46, HPV18 E7 23-42]
T cell epitope assignment (TH1) [5]: contain a TH1 epitope | Epitope type [3]: TH1 | T cell epitope assignment [6]: contain T helper epitopes | proportion of reactive CD4-positive and IFNγ-positive T cells ([7]; 1 μg peptide/ml, donor-identical BLCL, FIG. 12 top left): markedly higher than in the negative control | proportion of CD8-positive and IL4-positive cells ([7]; 1 μg peptide/ml, FIG. 12 lower right): low, and comparable to the negative control | T cell epitope assignment (TH1) ([7]; conclusion from FIG. 12 top left): contain a TH1 epitope

HPV18 E77-15: control peptide; HPV18 E77-15 epitope described by Rudolf MP et al. (2001) (TLQDIVLHL; UniProt P06788 7-15, looked up, fragment)
specific lysis [2]: No specific lysis

HPV16 E728-36: control peptide in the ELISpot analysis (LNDSSEEED; UniProt P03129 28-36, looked up, fragment) [reference compound]
IFN-γ ELISpot reaction [8]: did not induce any IFN-γ secretion

TTYKNTNFKEYLRHGEEYDL [P33, HPV16 L1 353-372]
proportion of CD8-positive T cells reactive on the basis of IFNγ expression ([9]; 1 μg P33/ml, donor-identical BLCL, versus negative control, FIG. 10): markedly higher | T cell epitope assignment ([9]; conclusion from FIG. 10): contains a cytotoxic T cell epitope | specific lysis of target cells (51Cr release) ([10]; 10 μg P33/ml, effector:target 20, T cells stimulated with peptides P1-P43, FIG. 2): able to efficiently lyse | T cell epitope assignment ([10]; conclusion from FIG. 2): H2b-restricted cytotoxic T cell epitope
